The values that follow come from PMC11124362, “Metabolism, Disposition, Excretion, and Potential Transporter Inhibition of 7–16, an Improving 5-HT2A Receptor Antagonist and Inverse Agonist for Parkinson’s Disease” (Molecules, 2024).

The nature of series [1]: Metabolite identification in human liver microsomes. As to conditions: 7–16 10 µM, liver microsomes 1 mg/mL, NADPH, 37 °C, 60 min. In kind it is in vitro ADME. The procedure:
(§1) In accordance with our previous methods, 7–16 (10 µM) was incubated with mouse, rat, dog, monkey, and human liver microsome proteins (1 mg/mL) in 100 mM sodium phosphate buffer (pH 7.4) containing 10 mM magnesium chloride and 2 mM NADPH at 37 °C for 60 min. All samples were prepared in duplicates. The reactions were terminated by adding three times the volume of ice-cold acetonitrile (600 µL) and stored at −20 °C until analysis. Control samples without NADPH and 0-time point samples were included. As a positive control, testosterone (10 µM), which was metabolized to produce the hydroxylation metabolite, was used as a substrate to confirm the activity of the incubation system.
(§2) After pre-treatments, the samples were analyzed by an Acquity UPLC system coupled with a diode array detector (Waters Corporation, Milford, MA, USA) and Q Exactive HRMS (Thermo Electron Corporation, Waltham, MA, USA) (UPLC–UV-Q Exactive HRMS). Samples were separated on an Agilent XDB C18 column (150 × 2.1 mm i.d. 3.5 μm, Agilent Corporation, Santa Clara, CA, USA) at 40 °C by gradient elution with water and acetonitrile containing 0.1% formic acid. The flow rate was 0.40 mL/min. The ultraviolet (UV) detection wavelength was 286 nm. Q Exactive HRMS were operated at positive ion mode (3.5 kV) using a heating electrospray ionization source. Mass calibration was required to be performed before conducting experiments so as to achieve the best mass accuracy and mass calibration should be performed every five days. The metabolites were detected by full MS/dd-MS^2 analysis from m/z 100 to m/z 1000. The resolution of the first-class scan and second-class scan was 70,000 and 17,500, respectively. Thermo Compound Discover software was used to identify expected and unknown metabolites, and we finally proposed the 7–16 metabolic pathways based on the deduced metabolites and relevant drug biotransformation knowledge.

Series [2] in a line: Metabolite identification in mouse liver microsomes. It counts as in vitro ADME. Conditions: 7–16 10 µM, liver microsomes 1 mg/mL, NADPH, 37 °C, 60 min. The procedure:
as §1, §2

The nature of series [3]: Metabolite identification in rat liver microsomes. In kind it is in vitro ADME. As to conditions: 7–16 10 µM, liver microsomes 1 mg/mL, NADPH, 37 °C, 60 min. The procedure: as §1, §2
Series [4] is described as follows: Metabolite identification in dog liver microsomes. It counts as in vitro ADME. As to conditions: 7–16 10 µM, liver microsomes 1 mg/mL, NADPH, 37 °C, 60 min. As for the experimental part:
as §1, §2

Series [5] can be described thus: Metabolite identification in monkey liver microsomes. It counts as in vitro ADME. Conditions: 7–16 10 µM, liver microsomes 1 mg/mL, NADPH, 37 °C, 60 min. The procedure: as §1, §2
Series [6] is described as follows: Metabolite identification in rat plasma after oral [14C]7–16. Conditions: single oral dose [14C]7–16 3 mg/100 µCi/kg, pooled plasma 0.25-24 h; for TRA% Plasma, female: female rats; for TRA% Plasma, male: male rats. In kind it is in vivo, Sprague-Dawley rats. The procedure:
The rats received a single oral dose of [^14C]7–16 at 3 mg/100 µCi/kg (3 females and 3 males for each time point). At 0.25, 1, 6, and 24 h after administration, about 0.3 mL of blood was collected into a collection vessel containing K2-EDTA anticoagulant by cardiac puncture, and the plasma samples were acquired after centrifugation at 8000 rpm for 10 min at 4 °C. All samples were stored at −20 °C until analysis. The rat plasma samples at each time point were mixed in accordance with the area under the concentration curve contribution at corresponding time intervals. After the pooled plasma samples were pre-treated, the radio-profiles of plasma samples were detected using Shimadzu LC coupled with a radioactivity monitor (LC-RAM, Scintillation and Luminescence Counter Technology, Perkin Elmer Corporation, Waltham, MA, USA), and the metabolites were identified by UPLC-QE HRMS (Thermo Electron Corporation, Waltham, MA, USA). The percentage of each metabolite based on the total radiation intensity (TRA%) in plasma samples was calculated. The structures of metabolites were identified by the same method used for metabolite identification in the liver microsomes of different species.

Series [7] is described as follows: Excretion and metabolite identification in urine and feces of intact rats. In kind it is in vivo, Sprague-Dawley rats. Conditions: for Dose% Feces, female / Dose% Urine, female: female rats; for Dose% Feces, female / Dose% Urine, female / Dose% Feces, male / Dose% Urine, male: single oral dose [14C]7–16 3 mg/100 µCi/kg; for Dose% Feces, male / Dose% Urine, male: male rats. The procedure:
(§3) In the urine and feces excretion experiment, six rats (3 females and 3 males) were administered a single oral dose of [^14C]7–16 at 3 mg/100 µCi/kg. Urine, feces and cage washing/cleaning solution samples were collected from 0 to 168 h following drug administration at the following time intervals: 0–8, 8–24 h (0–24 h for feces), 24–48, 48–72, 72–96, 96–120, 120–144, and 144–168 h. In the biliary excretion experiment, 8 rats using a bile duct cannula (BDC) (4 females and 4 males) were administered a single oral dose of [^14C]7–16 at 3 mg/100 µCi/kg. Bile, urine, feces, and cage washing solution were collected from before and 0–72 h after oral administration at the following time intervals: 0–4, 4–8 (urine 0–8), 8–24 (feces 0–24), 24–48, and 48–72 h. All samples were collected and refrigerated at −20 °C until determination of the radioactive concentrations by liquid scintillation counter (Perkin Elmer Corporation, Waltham, MA, USA). Urine, feces, and bile samples at each time period were mixed by equal percentages of either volume or weight. After the mixed samples were treated, the radio-profiles and metabolite identification in the bile, urine, and feces samples were carried out by LC-RAM and UPLC-Q Exactive HRMS, and the TRA% of each metabolite in plasma and the percentage of dose (dose%) of each compound in urine, feces, and bile samples were calculated.

Series [8] can be described thus: Excretion and metabolite identification in bile duct cannulated (BDC) rats. It counts as in vivo, Sprague-Dawley rats. As to conditions: single oral dose [14C]7–16 3 mg/100 µCi/kg; for Dose% Bile, female: female BDC rats; for Dose% Bile, male: male BDC rats. As for the experimental part:
as §3

With `CN1CCC(N(Cc2ccc(F)cn2)C(=O)NCc2ccc(O)cc2)CC1` [Compound M372], the “Relative Abundance, UV Area% Human” value in series [1] came to 0.60%. In addition, the “Relative Abundance, UV Area% Mouse” value in series [2] is 0.61%. For the same molecule, the “Relative Abundance, UV Area% Rat” value in series [3] was 1.10%. Further, the “Relative Abundance, UV Area% Dog” value in series [4] is listed as 1.73%. In series [5], the “Relative Abundance, UV Area% Monkey” value was found to be 2.52%. In series [6], the “TRA% Plasma, female” value is recorded as 1.11% and the “TRA% Plasma, male” value turned out to be 2.50%. In series [7], the “Dose% Feces, female” value is 4.97%; the “Dose% Urine, female” value was determined as 4.34%; the “Dose% Feces, male” value is given as 5.42%; the “Dose% Urine, male” value is recorded as 5.75%. In series [8], the “Dose% Bile, female” value came out at 0.41% and the “Dose% Bile, male” value is 0.83%.

For the molecule `O=C(NCc1ccc(OCC(F)(F)F)cc1)N(Cc1ccc(F)cn1)C1CCNCC1` [Compound M440], the “Relative Abundance, UV Area% Human” value in series [1] was determined as 0.78%. The “Relative Abundance, UV Area% Mouse” value in series [2] is listed as 0.39%. Further, the “Relative Abundance, UV Area% Rat” value in series [3] came to 1.29%. The “Relative Abundance, UV Area% Dog” value in series [4] amounted to 0.47%. In addition, the “Relative Abundance, UV Area% Monkey” value in series [5] is on record as 1.73%. In series [6], the “TRA% Plasma, female” value is given as 1.40% and the “TRA% Plasma, male” value amounted to 3.70%. In series [7], the “Dose% Feces, female” value is 21.1%; the “Dose% Urine, female” value stood at 2.66%; the “Dose% Feces, male” value turned out to be 24.2%; the “Dose% Urine, male” value amounted to 5.77%. Moreover, in series [8], the “Dose% Bile, female” value worked out at 2.71% and the “Dose% Bile, male” value was 3.83%.

In the case of `CN1CCC(N(Cc2ccc(F)cn2)C(=O)N[14CH2]c2ccc(OCC(F)(F)F)cc2)CC1` [[^14C]7–16], in series [6], the “TRA% Plasma, female” value was 81.9% and the “TRA% Plasma, male” value came to 57.3%. In series [7], the “Dose% Feces, female” value was 16.8%; the “Dose% Urine, female” value came out at 23.6%; the “Dose% Feces, male” value was 5.29%; the “Dose% Urine, male” value came to 9.79%. The “recovery of radioactivity within the first 24 h, percent of dose” value in series [7] (intact rats, first 24 h post-administration) worked out at 76.8%. For the same molecule, in series [8], the “Dose% Bile, female” value is 0.76% and the “Dose% Bile, male” value amounted to 0.53%.
